Reference: patent publication US8273719B2, “Wrinkle-diminishing agent” (Kao Corporation, priority 2004, dated 2012)

System: skin which had suffered from photoaging
Test: Wrinkle alleviating effect on photoaged (UVA/UVB irradiated) hairless mice: wrinkle score, dermis collagen content, epidermis thickness
Format: in vivo
Text: The wrinkle alleviating effect of the antiwrinkle agent of the present invention when applied to a skin which had suffered from photoaging was examined by the following test method. A group of ten hairless mice which were ten weeks old at the start of the test was used. Photoaging was caused by irradiating the mice with UVA and UVB once a day and five times per week for continuous eight weeks. A UVA dose of 20 J/cm^2 was increased to 25 J/cm^2 and then 30 J/cm^2 every week, and a UVB dose of 20 mJ/cm^2 was increased to 30 mJ/cm^2 and then 40 mJ/cm^2 every week, and the respective maximum doses were used on and after the third week. The wrinkle alleviating effect was evaluated in respect of the wrinkle score, the dermis collagen content and the epidermis thickness. […] Specifically, the wrinkles were macroscopically evaluated with respect to the size and depth and rated in 4 stages: “large and deep wrinkles can be recognized” was rated 3, “some wrinkles can be recognized” was rated 2, “any wrinkles cannot be recognized” was rated 1, and “normal and fine skin is observed” was rated 0. Whole skin was sampled and homogenized by a POLYTRON Homogenizer (manufactured by KINEMATICA AG), and then the collagen fraction was extracted and subjected to acid hydrolysis followed by quantitative determination of a hydroxyproline content using an amino acid analyzer (manufactured by JASCO Corporation). […]

Row | SMILES | Wrinkle alleviating effect on the wrinkles caused by the photoaging (overall conclusion in words) | Epidermis thickness, effect compared to Comparative Example 1 (base only) (result in words)
1 | C=CCc1ccc(O)c(OC)c1 [eugenol] | does not have a wrinkle alleviating effect | 
2 | C=CCc1ccc(O[C@@H]2O[C@H](CO)[C@@H](O)[C@H](O)[C@H]2O)c(OC)c1 [eugenyl glycoside, eugenyl-β-D-glucoside] |  | had no such an action
